Laboratory results reported in patent US8420630B2 (Boehringer Ingelheim Pharma GmbH & Co. KG, priority 2001, dated 2013).
Counter-ions that a name gives are not always drawn.

Biological target: T1, CDK1/cyclinB1 (Homo sapiens, UniProt P06493)
T1 construct: made in house; host or cells: High Five insect cells (Trichoplusia ni), baculovirus coinfection
Assay: Cyclin B1-CDK1 kinase inhibition test
Type: biochemical
Conditions: CDK1 tests (Example 13); recombinant cyclin B1/CDK1, substrate histone H1; read-out: CDK1/cyclinB1 IC50 value
Method: CDK4) were cloned by standard methods using RT-PCR, and cloned into a transfer vector (cyclin in pAcG2T made by Pharmingen, CDKs in p2Bac made by Invitrogen) for the baculovirus system. […] After thawing the cells were resuspended in lysing buffer (50 mM HEPES pH 7.5, 10 mM MgCl2, 1 mM DTT, 5 μg/ml leupeptin, 5 μg/ml aprotinin, 100 μM NaF, 100 μM PMSF, 10 mM β-glycerolphosphate, 100 μM Na3VO4, 30 mM nitrophenylphosphate, 17.5 ml of lysing buffer per 10^8 cells) and incubated on ice for 30 min. […] Cyclin D1-CDK4 was purified by means of a GST-tag on cyclin D1 and then using glutathione beads (total protein about 0.2 mg/ml). All the kinase tests were carried out in 96-well microtitre plates (Greiner PS) in a final volume of 60 μl. […] As a negative control the kinase reaction was carried out in the absence of the substrate histone H1. As a positive control the kinase reaction was carried out in the absence of a test substance. As an internal control 30 μM and 300 μM (final concentration) of the kinase inhibitor olomoucin (Alexis) were used. […] The kinase reaction is started by the addition of 10 μl of ATP mix (0.045 mM ATP, 0.5 μCi ^33P-ATP in kinase buffer) and incubated for 30 min at 30° C. and 600 rpm in a shaking incubator. After incubation the plates were placed on ice and the proteins were precipitated by the addition of 125 μl of ice-cold 5% trichloroacetic acid. After 15 min on ice the precipitates were transferred onto Packard Unifilter 96 GF/B plates with the Packard Harvester System, and collected by vacuum filtration. The precipitates were washed 4 times with dist. H2O at ambient temperature. The filter plates were then dried at 60° C. and 50 μl of scintillation liquid were added to each well (Ultima Gold, Packard). The plate was sealed up with Sealing Tape and after 1 h measured in a scintillation measuring apparatus (Micro Beta made by Wallac).

T1 sequence (P06493 whole entry): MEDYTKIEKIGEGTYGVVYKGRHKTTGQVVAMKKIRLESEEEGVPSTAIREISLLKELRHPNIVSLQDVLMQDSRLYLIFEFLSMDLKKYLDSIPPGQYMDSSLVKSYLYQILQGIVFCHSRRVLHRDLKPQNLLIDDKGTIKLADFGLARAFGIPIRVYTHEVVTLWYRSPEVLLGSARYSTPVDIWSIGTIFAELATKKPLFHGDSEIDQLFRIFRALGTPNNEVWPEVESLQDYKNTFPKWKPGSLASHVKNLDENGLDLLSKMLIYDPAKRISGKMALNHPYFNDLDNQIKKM
T1 sequence (P14635 whole entry partner): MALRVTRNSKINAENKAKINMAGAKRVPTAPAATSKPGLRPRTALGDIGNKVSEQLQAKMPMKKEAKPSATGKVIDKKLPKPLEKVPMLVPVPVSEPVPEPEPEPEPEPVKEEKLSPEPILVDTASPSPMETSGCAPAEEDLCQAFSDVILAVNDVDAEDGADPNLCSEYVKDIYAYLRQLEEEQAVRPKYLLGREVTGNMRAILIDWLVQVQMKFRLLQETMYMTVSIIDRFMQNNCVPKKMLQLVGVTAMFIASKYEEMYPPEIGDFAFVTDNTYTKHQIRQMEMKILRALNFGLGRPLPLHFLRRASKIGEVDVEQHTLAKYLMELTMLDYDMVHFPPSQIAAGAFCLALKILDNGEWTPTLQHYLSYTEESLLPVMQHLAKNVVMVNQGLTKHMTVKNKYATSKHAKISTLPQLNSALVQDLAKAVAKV

IC50, < 100 nM:
CC(=O)NCCNc1nc(Nc2ccc(S(=O)(=O)N3CCN(C)CC3)cc2)ncc1C(F)(F)F [Example 2(058), N-(2-{2-[4-(4-Methyl-piperazin-1-sulphonyl)-phenylamino]-5-trifluoromethyl-pyrimidin-4-ylamino}-ethyl)-acetamide]
O=C1CCCN1CCCNc1nc(Nc2ccc3cn[nH]c3c2)ncc1Br [Example 2(106), 1-{3-[5-Bromo-2-(1H-indazol-6-ylamino)-pyrimidin-4-ylamino]-propyl}-pyrrolidin-2-one]
O=[N+]([O-])c1cnc(Nc2cccc(Br)c2)nc1N1CCc2[nH]cnc2C1 [Example 1(119), 2-(3-bromophenylamino)-4-(1,4,6,7-tetrahydro-imidazo[4,5-c]pyridin-5-yl)-5-nitro-pyrimidine]
NCC1CCN(c2nc(Nc3cccc(Br)c3)ncc2[N+](=O)[O-])CC1 [Example 1(042), 2-(3-bromo-phenylamino)-4-(4-aminomethyl-piperidin-1-yl)-5-nitro-pyrimidine]
O=C1CCCN1CCCNc1nc(Nc2cc(Cl)cc(Cl)c2)ncc1C(F)(F)F [Example 1(049), 2-(3,5-dichloro-phenylamino)-4-(3-(2-oxo-pyrrolidin-1-yl)-propyl-1-amino)-5-trifluoromethyl-pyrimidine]
CC(=O)NCCNc1nc(Nc2ccc(C(N)=O)cc2)ncc1Br [Example 1(663), 4-[4-(2-acetylamino-ethylamino)-5-bromo-pyrimidin-2-ylamino]-benzamide]
CC(=O)NCCNc1nc(Nc2ccc(Cl)c(Cl)c2)ncc1C(F)(F)F [Example 2(003), 2-(3,4-dichlorophenylamino)-4-(2-acetylamino-ethylamino)-5-trifluoromethyl-pyrimidine-hydrochloride]
O=[N+]([O-])c1cnc(NCc2ccccc2Br)nc1N1CC[S+]([O-])CC1 [Example 1(628), 2-(2-bromo-benzylamino)-4-(S-oxido-thiomorpholino)-5-nitro-pyrimidine]
O=[N+]([O-])c1cnc(Nc2ccc(Cl)cc2)nc1N1CCC[C@H]1CO [Example 1(055), 2-(4-chloro-phenylamino)-4-((2S)-2-hydroxymethyl-pyrrolidin-1-yl)-5-nitro-pyrimidine]
CCN(CC)C(=O)NCCCNc1nc(Nc2ccc3cnn(C)c3c2)ncc1C(F)(F)F [Example 7(032), 1,1-diethyl-3-{3-[2-(1-methyl-1H-indazol-6-ylamino)-5-trifluoromethyl-pyrimidin-4-ylamino]-propyl}-urea]
CN(C)S(=O)(=O)c1ccc(Nc2ncc(C(F)(F)F)c(NCCCN3CCCC3=O)n2)cc1 [Example 2(041), N,N-Dimethyl-4-{4-[3-(2-oxo-pyrrolidin-1-yl)-propylamino]-5-trifluoromethyl-pyrimidin-2-ylamino}-phenylsulphonamide]
O=C1CCCN1CCCNc1nc(Nc2cccc(Cl)c2)ncc1C(F)(F)F [Example 1(067), 2-(3-chloro-phenylamino)-4-(3-(2-oxo-pyrrolidin-1-yl)-propyl-1-amino)-5-trifluoromethyl-pyrimidine]
CC(=O)NCCNc1nc(Nc2ccc3[nH]nnc3c2)ncc1C(F)(F)F [Example 2(042), N-{2-[2-(1H-Benzotriazol-5-ylamino)-5-trifluoromethyl-pyrimidin-4-ylamino]-ethyl}-acetamide]
O=C(O)CCc1ccc(Nc2ncc([N+](=O)[O-])c(N3CCc4[nH]cnc4C3)n2)cc1 [Example 1(112), 2-(4-(2-carboxy-1-ethyl)-phenylamino)-4-(1,4,6,7-tetrahydro-imidazo[4,5-c]pyridin-5-yl)-5-nitro-pyrimidine]
NCC1CCC(CNc2nc(Nc3cccc(Br)c3)ncc2C(F)(F)F)CC1 (stereo not shown) [Example 1(088), 2-(3-bromo-phenylamino)-4-(4-aminomethyl-cyclohexylmethylamino)-5-trifluoromethyl-pyrimidine]
N#Cc1ccc(Nc2ncc([N+](=O)[O-])c(N3CCc4[nH]cnc4C3)n2)cc1 [Example 1(032), 2-(4-cyano-phenylamino)-4-(1,4,6,7-tetrahydro-imidazo[4,5-c]pyridin-5-yl)-5-nitro-pyrimidine]
CC(=O)NCCNc1nc(Nc2ccc3cn[nH]c3c2)ncc1C(F)(F)F [Example 2(044), N-{2-[2-(1H-Indazol-6-ylamino)-5-trifluoromethyl-pyrimidin-4-ylamino]-ethyl}-acetamide]
NC(=O)CCNc1nc(Nc2ccc(Cl)c(Cl)c2)ncc1C(F)(F)F [Example 1(025), 2-(3,4-dichloro-phenylamino)-4-(2-aminocarbonyl-1-ethylamino)-5-trifluoromethyl-pyrimidine]
CC(=O)N(C)CCN(C)c1nc(Nc2ccc(S(=O)(=O)N(C)C)cc2)ncc1C(F)(F)F [Example 1(690), N-(2-{[2-(4-dimethylsulphamoyl-phenylamino)-5-trifluoromethyl-pyrimidin-4-yl]-methyl-amino}-ethyl)-N-methyl-acetamide]
CN(C)C(=O)NCCCNc1nc(Nc2ccc3cnn(C)c3c2)ncc1C(F)(F)F [Example 7(035), 1,1-dimethyl-3-{3-[2-(1-methyl-1H-indazol-6-ylamino)-5-trifluoromethyl-pyrimidin-4-ylamino]-propyl}-urea]
CN(C)S(=O)(=O)c1ccc(Nc2ncc(C(F)(F)F)c(N3CCc4nc[nH]c4C3)n2)cc1 [Example 1(694), N,N-dimethyl-4-[4-(3,4,6,7-tetrahydro-imidazo[4,5-c]pyridin-5-yl)-5-trifluoromethyl-pyrimidin-2-ylamino]-phenylsulphonamide]
NCC1CCC(CNc2nc(Nc3ccccc3)ncc2C(F)(F)F)CC1 (stereo not shown) [Example 1(033), 2-phenylamino-4-(4-aminomethyl-cyclohexylmethylamino)-5-trifluoromethyl-pyrimidine]
Nc1c(Cl)cc(Nc2ncc([N+](=O)[O-])c(N3CCc4[nH]cnc4C3)n2)cc1Cl [Example 1(113), 2-(4-amino-3,5-dichlorophenylamino)-4-(1,4,6,7-tetrahydro-imidazo[4,5-c]pyridin-5-yl)-5-nitro-pyrimidine]
CC(=O)NCCNc1nc(Nc2ccc(C(=O)Nc3ccccn3)cc2)ncc1C(F)(F)F [Example 8(024), 4-[4-(2-acetylamino-ethylamino)-5-trifluoromethyl-pyrimidin-2-ylamino]-N-pyridin-2-yl-benzamide]
NCCCNc1nc(Nc2ccc(C(N)=O)cc2)ncc1C(F)(F)F [Example 1(693), 4-[4-(3-aminopropylamino)-5-trifluoromethyl-pyrimidin-2-ylamino]benzamide]
NCCNc1nc(Nc2ccc(Cl)c(Cl)c2)ncc1C(F)(F)F [Example 1(080), 2-(3,4-dichloro-phenylamino)-4-(2-amino-1-ethylamino)-5-trifluoromethyl-pyrimidine]
CC(=O)NCCNc1nc(Nc2ccc3c(cnn3C)c2)ncc1C(F)(F)F [Example 1(655), N-{2-[2-(1-methyl-1H-indazol-5-ylamino)-5-trifluoromethyl-pyrimidin-4-ylamino]-ethyl}-acetamide]
Cn1ncc2ccc(Nc3ncc(C(F)(F)F)c(NCCCNC(=O)Cc4ccccc4)n3)cc21 [Example 7(021), N-{3-[2-(1-methyl-1H-indazol-6-ylamino)-5-trifluoromethyl-pyrimidin-4-ylamino]-propyl}-2-phenyl-acetamide]
NCCCCCNc1nc(Nc2cccc(Cl)c2)ncc1C(F)(F)F [Example 1(077), 2-(3-chloro-phenylamino)-4-(5-amino-1-pentylamino)-5-trifluoromethyl-pyrimidine]
CC(=O)NCCNc1nc(Nc2ccc3cnn(C)c3c2)ncc1C(F)(F)F [Example 1(654), N-{2-[2-(1-methyl-1H-indazol-6-ylamino)-5-trifluoromethyl-pyrimidin-4-ylamino]-ethyl}-acetamide]
NCCCNc1nc(Nc2cccc(Br)c2)ncc1C(F)(F)F [Example 1(024), 2-(3-bromo-phenylamino)-4-(3-amino-propylamino)-5-trifluoromethyl-pyrimidine]
